# Reference: patent US20030229066A1, “Novel heterocyclic urea derivatives and their use as dopamine D3 receptor ligands” (priority 2001, published 2003)
# Where two headings read alike, the source gives them in different places.
# Assays:
# [1] = molecular target: T1, cloned human alpha-1A adrenergic receptors (α1a) (Homo sapiens, UniProt P35348); assay: [3H]Prazosin binding to cloned human alpha-1A adrenergic receptors expressed in CHO cells; settings: for Ki: Table II, pairs of 6-fluoro and 6-trifluoromethyl benzo[b]thiophenes, read-out: halpha1Ki
# T1 construct: expressed in transfected cells
# T1 sequence (P35348 1-466): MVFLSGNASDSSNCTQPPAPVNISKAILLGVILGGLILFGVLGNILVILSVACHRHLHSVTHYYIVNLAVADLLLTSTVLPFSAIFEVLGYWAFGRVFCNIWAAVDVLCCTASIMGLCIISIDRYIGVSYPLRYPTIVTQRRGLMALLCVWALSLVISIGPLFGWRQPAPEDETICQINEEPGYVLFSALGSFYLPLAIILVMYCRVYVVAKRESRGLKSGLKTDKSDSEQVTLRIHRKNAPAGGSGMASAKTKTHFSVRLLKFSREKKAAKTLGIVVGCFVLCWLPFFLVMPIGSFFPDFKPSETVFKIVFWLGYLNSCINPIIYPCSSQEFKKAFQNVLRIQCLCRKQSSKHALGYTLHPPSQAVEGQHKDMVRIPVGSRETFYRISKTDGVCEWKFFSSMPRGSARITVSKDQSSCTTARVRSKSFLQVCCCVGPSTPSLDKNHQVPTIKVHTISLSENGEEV
# From the text: [^3H]PRAZOSIN BINDING TO CLONED HUMAN ALPHA-1A ADRENERGIC RECEPTORS (α1a) EXPRESSED IN CHINESE HAMSTER OVARY CELLS (CHO)
# This in vitro assay is designed as a screen to identify compounds displaying a affinity for the human α1a adrenoceptor subtype expressed in the membrane fragments of CHO cells. The assay-measures the ability of the test compounds to displace [^3H]prazosin from α1a sites.
# Therefore, the binding of compounds to α1a adrenergic receptors is believed to be a good measure of a compound's potential to cause orthostatic hypotension and sedation as side effects. Prazosin is a potent antagonist of the human α1a-adrenoceptor subtype, which has been cloned and is expressed in the membrane fragments of CHO cells.
# The cloning of the human α1a cDNA was accomplished first by screening a human prostate cDNA library (Clontech), from which a portion of the coding region was obtained. This DNA fragment was then used to screen a human leukocyte genomic library (Clontech), and the rest of the coding sequence was obtained. Later these two fragments were spliced together. The entire coding sequence was then fully sequenced including matching PCR sequence with original genomic coding sequence, thus ensuring splice sites were joined correctly (Schwinn et al., 1995). Once sequenced, the gene was subcloned into the expression vector pcDNA3 (Invitrogen). Plasmid DNA was then used for transfection into CHO cells and G418 resistant clones were isolated. A clone expressing high levels of the hα1a receptor (as determined by mRNA and receptor binding data) was chosen and pharmacologically characterized.
# [7-methoxy-^3H]-Prazosin: 1.0 nM (NEN, NET-823) 70-87 Ci/mmol
# A: 50 mM Tris HCl; 0.1% ascorbate, pH 7.7 (incubation buffer)
# Total Binding=50 μl buffer A+50 μl [^3H]prazosin+100 μl membrane
# Nonsp. Bd.=50 μl 10 μM phentolamine+50 μl [^3H]prazosin+100 μl membrane
# Test Cpd.=50 μl compound+50 μl [^3H]prazosin+100 μl membrane
# Compounds to be evaluated are weighed out to yield a 10 mM stock solution in DMSO in a 24 well polystyrene plate. This is diluted to a 0.5 mM stock in dH2O. Serial dilutions in Buffer A are made from which 50 μl additions to the plate are made in duplicate in order to achieve the final concentrations desired. Typically, one 96 well plate is used to evaluate 11 compounds at 4 concentrations (10^−6-10^−9 M) in duplicate. Total binding and nonspecific binding are determined in quadruplicate. Usually one standard is run with each assay.
# [^3H]Prazosin is made up in Buffer A such that when 50 μl are added per well the final concentration is 1.0 nM in a final assay volume of 200 μl. The final concentration should be verified by running a sample in a scintillation counter prior to adding the [^3H]prazosin to the 96 well plate. Note: The radioactivity should be prepared just before the additions are made so that it is not allowed to sit on the bench for very long.
# Incubation & Filtration: Once buffer, compounds, [^3H]prazosin and membrane have been added (and mixed), the 96 well plates are incubated for 40 min at 37° C. and spaced 3-5 min apart. At 40 min, the plates are filtered using a Tomtec Automated Cell Harvester. Filtration is immediately followed by washes of ice cold Buffer B (total vol. ˜7 ml).
# Analysis of Results: Raw DPM and CPM data are captured on disk and are imported into one of several software packages (Graphpad Prism Ver 2.0, Excel) residing on the LAN. Specific binding is defined as the difference between total binding and the binding in the presence of 10 μM phentolamine. Total binding is less than 10% of the total added ligand. Software using one-site competition curve analysis is employed in the calculation of IC50 and Kj (Cheng-Prusoff equation, 1973). The top and bottom of the non-linear regression are held constant at 0% and 100% inhibition. The percent inhibition at each drug concentration is the mean of duplicate determinations.
# [2] = molecular target: T2, cloned human dopamine D3 receptors (Homo sapiens, UniProt P35462); assay: [N-Methyl-3H]Spiroperidol binding to cloned human dopamine D3 receptors
# T2 construct: expressed in transfected cells
# T2 sequence (P35462 whole entry): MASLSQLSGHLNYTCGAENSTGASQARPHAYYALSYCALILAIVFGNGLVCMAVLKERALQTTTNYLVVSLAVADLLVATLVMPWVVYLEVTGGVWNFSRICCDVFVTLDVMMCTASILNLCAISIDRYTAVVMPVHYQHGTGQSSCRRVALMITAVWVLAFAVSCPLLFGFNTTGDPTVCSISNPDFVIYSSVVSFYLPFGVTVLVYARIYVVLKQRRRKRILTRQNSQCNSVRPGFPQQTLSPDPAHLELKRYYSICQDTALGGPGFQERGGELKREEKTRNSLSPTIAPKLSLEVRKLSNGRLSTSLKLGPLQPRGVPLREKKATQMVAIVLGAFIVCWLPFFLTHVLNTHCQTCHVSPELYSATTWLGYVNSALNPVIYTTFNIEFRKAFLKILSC
# Method in brief: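 Competition binding on homogenized CHO cells stably expressing human D3, with 0.4 nM [3H]NMSP (final), 37 °C for 30 min, filtration and scintillation counting. Nonspecific binding defined with 3 μM S(-)-eticlopride; typically eight test concentrations, 10^−5–10^−8 M final. Ki by Cheng-Prusoff from one-site competition fits, duplicate means.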
Compound,Ki [1],"Ki ([2]; Table III, read-out: d3Ki)",Ki [2],further results
O=C(NCCCCN1CCN(c2csc3cc(F)ccc23)CC1)Nc1ccccc1 [compound 813581],1.5 nM,–,–,–
CC(=O)c1ccc(NC(=O)NCCCCN2CCN(c3csc4cc(F)ccc34)CC2)cc1 [compound 814932],2.2 nM,–,–,–
COc1ccc(NC(=O)NCCCCN2CCN(c3csc4cc(F)ccc34)CC2)cc1 [compound 814933],1.8 nM,–,–,–
CCCCc1ccc(NC(=O)NCCCCN2CCN(c3csc4cc(F)ccc34)CC2)cc1 [compound 814937],532 nM,–,–,–
Cc1ccc(NC(=O)NCCCCN2CCN(c3csc4cc(F)ccc34)CC2)cc1 [compound 814941],13.5 nM,–,–,–
O=C(NCCCCN1CCN(c2csc3cc(F)ccc23)CC1)NC1CCCCC1 [compound 814945],4.5 nM,–,–,–
O=C(NCCCCN1CCN(c2csc3cc(F)ccc23)CC1)Nc1ccc(Br)cc1 [compound 814949],18.2 nM,–,–,–
O=C(NCCCCN1CCN(c2csc3cc(F)ccc23)CC1)Nc1ccc(C(F)(F)F)cc1 [compound 814952],44.8 nM,–,–,–
O=C(NCCCCN1CCN(c2csc3cc(F)ccc23)CC1)Nc1cccc(F)c1 [compound 814953],3.5 nM,–,–,–
CC(=O)c1ccc(NC(=O)NCCCCN2CCN(c3csc4cc(C(F)(F)F)ccc34)CC2)cc1 [compound 815993],74.9 nM,2.26 nM,–,–
COc1ccc(NC(=O)NCCCCN2CCN(c3csc4cc(C(F)(F)F)ccc34)CC2)cc1 [compound 815994],1220 nM,8.87 nM,–,halpha1 % I ([1]; @1 μM): 11.9& Inh @1 μM % Inh
CCCOc1ccc(NC(=O)NCCCCN2CCN(c3csc4cc(C(F)(F)F)ccc34)CC2)cc1 [compound 815995],–,17.5 nM,–,halpha1 % I ([1]; @10 μM): 42.4% Inh @10 μM
Cc1ccc(NC(=O)NCCCCN2CCN(c3csc4cc(C(F)(F)F)ccc34)CC2)cc1 [compound 815997],936 nM,4.5 nM,–,halpha1 % I ([1]; @1 μM): 23.5% Inh @1 μM
O=C(NCCCCN1CCN(c2csc3cc(C(F)(F)F)ccc23)CC1)Nc1ccc(Br)cc1 [compound 816000],234 nM,6.31 nM,–,–
O=C(NCCCCN1CCN(c2csc3cc(C(F)(F)F)ccc23)CC1)NC1CCCCC1 [compound 816001],83.6 nM,4.68 nM,–,–
O=C(NCCCCN1CCN(c2csc3cc(C(F)(F)F)ccc23)CC1)Nc1ccc(C(F)(F)F)cc1 [compound 816002],435 nM,12.5 nM,–,halpha1 % I ([1]; @1 μM): 30.2% Inh @1 μM
O=C(NCCCCN1CCN(c2csc3cc(C(F)(F)F)ccc23)CC1)Nc1cccc(F)c1 [compound 816003],56.7 nM,1.58 nM,–,–
O=C(NCCCCN1CCN(c2csc3cc(C(F)(F)F)ccc23)CC1)Nc1ccccc1 [compound 816005],56.8 nM,2.54 nM,–,–
COc1ccc(NC(=O)NC[C@@H]2C[C@H]2CN2CCN(c3csc4cc(C(F)(F)F)ccc34)CC2)cc1 [compound 832810],–,–,33.5 nM,–
O=C(NC[C@@H]1C[C@H]1CN1CCN(c2csc3cc(C(F)(F)F)ccc23)CC1)NC1CCCCC1 [compound 832811],–,–,18.2 nM,–
O=C(NC[C@@H]1C[C@H]1CN1CCN(c2csc3cc(C(F)(F)F)ccc23)CC1)Nc1ccccc1C(F)(F)F [compound 832812],–,–,39.5 nM,–

# The next lines start with results.
Ki [1],"Ki ([2]; Table III, read-out: d3Ki)",Ki [2],Compound,further results
–,–,50.8 nM,O=C(NC[C@@H]1C[C@H]1CN1CCN(c2csc3cc(C(F)(F)F)ccc23)CC1)Nc1cccc(Cl)c1 [compound 832813],–
–,–,3.9 nM,O=C(NC[C@@H]1C[C@H]1CN1CCN(c2csc3cc(C(F)(F)F)ccc23)CC1)Nc1ccc(Oc2ccccc2)cc1 [compound 832820],–
–,–,45.2 nM,CC(C)c1ccc(NC(=O)NC[C@@H]2C[C@H]2CN2CCN(c3csc4cc(C(F)(F)F)ccc34)CC2)cc1 [compound 832919],–
–,–,18.2 nM,COc1cccc(NC(=O)NC[C@@H]2C[C@H]2CN2CCN(c3csc4cc(C(F)(F)F)ccc34)CC2)c1 [compound 833203],–
–,–,0.39 nM,O=C(NCCCN1CCCCC1)NC[C@@H]1C[C@H]1CN1CCN(c2csc3cc(C(F)(F)F)ccc23)CC1 [compound 833258],–
–,–,0.238 nM,"O=C(NCCCn1ccnc1)NC[C@@H]1C[C@H]1CN1CCN(c2csc3cc(C(F)(F)F)ccc23)CC1 [compound 833306, 1-(3-Imidazol-1-yl-propyl)-3-{(1R, 2R )-2-[4-(6-trifluoromethyl-benzo[b]thiophen-3yl-)-piperazin-1-ylmethyl]-cyclopropylmethyl}-urea]",–
–,–,29.1 nM,C[C@H]1CC[C@H](NC(=O)NC[C@@H]2C[C@H]2CN2CCN(c3csc4cc(C(F)(F)F)ccc34)CC2)CC1 [compound 833356],–
–,–,2.1 nM,O=C(NCCCCN1CCN(c2csc3cc(C(F)(F)F)ccc23)CC1)Nc1ccc(C(=O)O)cc1 [compound 833724],–
–,–,0.602 nM,O=C(NCCCCN1CCN(c2csc3cc(C(F)(F)F)ccc23)CC1)Nc1ccc(CO)cc1 [compound 833725],–
